In patent publication US9435807B2, “Use of leucyl tRNA synthetase” (Medicinal Bioconvergence Research Center, priority 2011, dated 2016):
Values belong to the molecule of their own block, whether it stands above or below them.

What was measured:
LRS / RagD binding = target: T1, LRS / RagD binding (Homo sapiens, UniProt Q9NQL2+Q9P2J5); assay: In vitro pull-down of RagD with GST-LRS
T1 construct: made in house; RagD: 293T cell lysate
Procedure: In FIG. 6c, purified GST or GST-LRS protein was incubated with HA-RagD transfected cell lysates in the presence of GDPβS or GTPγS. The co-precipitated RagD was determined by immunoblotting with anti-HA antibody.
In FIG. 10a, the effect of tRNA on in vitro LRS-RagD binding. 293T cell lysates were incubated with purified GST or GST-fused LRS in the presence of the combinations of leucine (0.1 mM), ATP (0.1 mM), and tRNA^Leu (25 μg). The precipitated RagD was determined by immunoblotting with anti-RagD antibody.
Recombinant LRS or RagD fragment proteins were expressed as GST fusion proteins and purified by glutathione sepharose. The interactions between RagD fragments and myc-LRS overexpressed cell lysates or between LRS fragments and HA-RagD overexpressed cell lysates were tested using in vitro binding assays. Binding assay was conducted in 25 mM Tris-HCl buffer (pH7.4) containing 10 mM NaCl, 1 mM MgCl2, 1 mM EDTA, 0.5 mM EGTA, and 0.5% Triton X-100.

mTORC1 [1] = assay: S6K phosphorylation (mTORC1 activation) by immunoblotting in 293T cells; format: cell-based; conditions: for EC50: Homo sapiens, HEK-293T; for EC50 / leucine-induced S6K phosphorylation / amino acid-induced S6K phosphorylation: 293T cells; for S6K phosphorylation by the leucine analogue itself: 293T cells starved 1 hour of leucine, 0.8 or 8 mM analogue; for leucine-induced S6K phosphorylation: preincubated with 0.8 or 8 mM analogue, then 0.8 mM leucine 5 min; for amino acid-induced S6K phosphorylation: siRNA 48 hours
Procedure: FIGS. 9a-9d show the effect of LRS knockdown on leucine- or leucine analogues-stimulated S6K phosphorylation. In FIG. 9a, the effect of leucine analogues on leucine-stimulated S6K phosphorylation is shown. 293T cells were starved for 1 hour of leucine and preincubated with either 0.8 or 8 mM leucinol or leucine amide. After 5 min, 0.8 mM leucine was added. After 5 min incubation, cells were harvested and S6K phosphorylation was determined by immunoblotting.
In FIG. 11a, 293T cells were treated with leucine at the indicated concentration for 5 min. Leucine-dependent S6K phosphorylation was determined by immunoblotting. In FIG. 11b, quantitation of p-S6K band in FIG. 11a is shown. EC50 of leucine stimulation of mTORC1 was about […]. In FIG. 11c, kinetic parameters for leucylation and ATP-PPi exchange activity of WT LRS is shown.
(§1) For leucine depletion, cells were rinsed with leucine-free DMEM twice, incubated in leucine-free DMEM for 60 minutes, and stimulated with […] leucine for 5-60 minutes. For amino acid starvation, cells were rinsed with and incubated in DPBS containing 25 mM glucose, 1 mM sodium pyruvate, lx MEM vitamins for 60 minutes, and replaced with and incubated in DMEM for 5-60 minutes.
(§2) Cells were dissolved in the lysis buffer containing 1% Triton X-100, 40 mM HEPES (pH7.4), 2 mM EDTA, 10 mM pyrophosphate, 10 mM glycerophosphate, and protease inhibitor cocktail. The lysates were centrifuged at 13,000 rpm for 30 minutes. We then fractionated 20 μg of the extracted proteins by SDS-PAGE. For immunoprecipitations, the cells were lysed (50 mM Tris-HCL (pH 7.4), 10 mM NaCl, 1 mM EDTA, 0.5 mM EGTA, 1 mM MgCl2, 0.1% CHAPS, and 0.5% Triton X-100, 1 mM phenylmethylsulfonyl fluoride) and the primary antibodies were added to the lysates and incubated with rotation for 2 hr at 4° C. A 50% slurry of protein agarose G-sepharose was then added and the incubation continued for an additional 4 hr. After washing three times with the ice-cold lysis buffer, the precipitates were dissolved in the SDS sample buffer and separated by SDS-PAGE.

mTORC1 [2] = assay: S6K phosphorylation (mTORC1 activation) by immunoblotting in HeLa cells; format: cell-based; conditions: for S6K phosphorylation by the leucine analogue itself: HeLa cells starved 1 hour of leucine, 0.8 or 8 mM analogue; for leucine-induced S6K phosphorylation: HeLa cells, preincubated with 0.8 or 8 mM analogue, then 0.8 mM leucine 5 min
Procedure: In FIG. 9b, HeLa cells were starved for 1 hour of leucine and preincubated with either 0.8 or 8 mM leucinol or leucine amide. After 5 min, 0.8 mM leucine was added. After 5 min incubation, cells were harvested and S6K phosphorylation was determined by immunoblotting.
as §1, §2

293T cells = assay: Cell size determination (FSC of G1 cells, FACS); format: cell-based
Procedure: For measurement of cell size using forward scatter units (FSC) with unfixed cells. 293T cells were plated, washed once with PBS, and resuspended in PBS containing 0.1% serum, 5 mM EDTA, 5 ng/ml propidium iodide (PI; Sigma). Samples were analyzed by FACS analysis (FACS caliber; Becton Dickinson) for cell size (FSC). The mean of FSC of G1 phase cells was determined.

EGFP-LC3 puncta = assay: Autophagy: EGFP-LC3 puncta in siRNA-transfected cells; format: cell-based; conditions: starved for leucine and serum for 2 hours
Procedure: The cells were starved for leucine and serum for 2 hours. Accumulation of EGFP-LC3 in puncta, was monitored.

T1 sequence (Q9P2J5 whole entry): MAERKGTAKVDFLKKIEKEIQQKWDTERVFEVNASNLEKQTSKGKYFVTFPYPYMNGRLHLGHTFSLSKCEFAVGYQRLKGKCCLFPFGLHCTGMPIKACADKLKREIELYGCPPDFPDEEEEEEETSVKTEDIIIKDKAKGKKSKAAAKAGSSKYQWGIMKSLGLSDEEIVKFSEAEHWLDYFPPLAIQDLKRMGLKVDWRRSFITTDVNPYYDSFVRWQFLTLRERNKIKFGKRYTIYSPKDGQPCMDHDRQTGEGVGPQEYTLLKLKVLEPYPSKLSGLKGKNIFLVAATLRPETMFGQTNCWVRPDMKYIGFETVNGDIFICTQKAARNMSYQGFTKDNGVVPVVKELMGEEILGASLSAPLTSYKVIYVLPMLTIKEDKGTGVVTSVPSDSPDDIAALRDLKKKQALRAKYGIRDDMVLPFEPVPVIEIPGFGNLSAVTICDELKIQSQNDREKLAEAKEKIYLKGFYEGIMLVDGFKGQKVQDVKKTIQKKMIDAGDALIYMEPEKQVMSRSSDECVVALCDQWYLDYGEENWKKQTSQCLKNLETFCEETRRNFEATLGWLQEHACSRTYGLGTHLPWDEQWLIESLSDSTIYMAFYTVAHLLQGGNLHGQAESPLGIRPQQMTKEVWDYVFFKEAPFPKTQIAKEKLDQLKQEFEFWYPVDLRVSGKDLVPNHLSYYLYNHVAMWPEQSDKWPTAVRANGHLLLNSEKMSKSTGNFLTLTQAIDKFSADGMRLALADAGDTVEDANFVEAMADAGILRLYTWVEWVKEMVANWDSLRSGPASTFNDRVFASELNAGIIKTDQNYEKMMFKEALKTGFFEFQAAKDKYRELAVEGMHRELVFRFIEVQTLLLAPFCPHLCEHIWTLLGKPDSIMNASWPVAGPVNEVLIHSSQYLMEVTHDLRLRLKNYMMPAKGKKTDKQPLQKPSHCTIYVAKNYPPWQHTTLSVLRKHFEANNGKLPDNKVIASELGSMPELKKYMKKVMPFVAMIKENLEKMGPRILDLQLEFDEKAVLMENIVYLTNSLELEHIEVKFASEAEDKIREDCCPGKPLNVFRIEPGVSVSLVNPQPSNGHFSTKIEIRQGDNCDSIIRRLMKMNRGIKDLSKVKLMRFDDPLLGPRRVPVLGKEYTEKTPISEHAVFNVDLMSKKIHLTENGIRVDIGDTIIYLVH
T1 sequence (Q9NQL2 whole entry): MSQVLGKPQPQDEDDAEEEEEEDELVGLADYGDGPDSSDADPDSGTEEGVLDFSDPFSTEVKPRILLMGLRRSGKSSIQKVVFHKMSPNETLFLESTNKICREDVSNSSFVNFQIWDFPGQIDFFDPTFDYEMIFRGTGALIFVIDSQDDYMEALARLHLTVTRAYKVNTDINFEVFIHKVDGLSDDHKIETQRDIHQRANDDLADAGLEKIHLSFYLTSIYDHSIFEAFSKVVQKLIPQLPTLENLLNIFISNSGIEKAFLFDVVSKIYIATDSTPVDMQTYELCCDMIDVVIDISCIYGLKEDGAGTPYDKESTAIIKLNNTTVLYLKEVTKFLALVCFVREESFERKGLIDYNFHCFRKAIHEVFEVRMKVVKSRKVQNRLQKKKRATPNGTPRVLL

competition with RagD for LRS binding (LRS / RagD binding; GST-LRS with 293T cell lysates, ATP 0.1 mM, tRNA^Leu 25 μg): not
Molecule: Nc1ncnc2c1ncn2[C@@H]1O[C@H](COP(=O)(O)OP(=O)(O)OP(=O)(O)O)[C@@H](O)[C@H]1O [ATP]

Molecule: Nc1nc2c(ncn2[C@@H]2O[C@H](COP(=O)(O)OP(O)(O)=S)[C@@H](O)[C@H]2O)c(=O)[nH]1 [GDPβS]
binding affinity of LRS to RagD (LRS / RagD binding; GST-LRS with HA-RagD transfected 293T cell lysates, presence of nucleotide analogue): significantly reduced

EC50 (mTORC1 [1]; 5 min, leucine 5 min, quantitation of p-S6K band (FIG. 11b legend), read-out: EC50 of leucine stimulation of mTORC1): ~80 µM
EC50 (mTORC1 [1]; read-out: EC50 for leucine stimulation of mTORC1): ~80 µM
EC50 (mTORC1 [2]; Homo sapiens, HeLa cells (data not shown), read-out: EC50 for leucine stimulation of mTORC1): ~80 µM
Molecule: CC(C)C[C@H](N)C(=O)O [Leucine, L-Leucine]

Molecule: CC(C)C[C@H](N)C(N)=O [leucinamide, L-Leucinamide]
S6K phosphorylation by the leucine analogue itself (mTORC1 [1]): significantly induced
leucine-induced S6K phosphorylation (mTORC1 [1]): further increased
S6K phosphorylation by the leucine analogue itself (mTORC1 [2]): significantly induced
leucine-induced S6K phosphorylation (mTORC1 [2]): further increased

Molecule: CC(C)C[C@H](N)CO [leucinol, Leucinol]
S6K phosphorylation by the leucine analogue itself (mTORC1 [1]): no effect
leucine-induced S6K phosphorylation (mTORC1 [1]): inhibited leucine-induced S6K phosphorylation in dose-dependent manner
S6K phosphorylation by the leucine analogue itself (mTORC1 [2]): no effect
leucine-induced S6K phosphorylation (mTORC1 [2]): inhibited leucine-induced S6K phosphorylation in dose-dependent manner

Molecule: MRS siRNA: siRNA CUACCGCUGGUUUAACAUUUCGUUU, SEQ ID NO 18 (chemistry not given here)
amino acid-induced S6K phosphorylation (mTORC1 [1]): not
cell size (293T cells): no effect

Molecule: VRS siRNA: siRNA AGAAGAGGAUGUCAUGACCGGUCUC, SEQ ID NO 17 (chemistry not given here)
amino acid-induced S6K phosphorylation (mTORC1 [1]): not
cell size (293T cells): no effect

Molecule: mTOR siRNA: siRNA GGAAGUACCCUACUUUGCUUGAGGU, SEQ ID NO 15 (chemistry not given here)
amino acid-induced S6K phosphorylation (mTORC1 [1]): significantly inhibited
LC3 puncta per cell compared to control siRNA (EGFP-LC3 puncta): statistically significant increase
